# Laboratory results: patent USRE49444E1, “Method of treating osteoporosis comprising administration of PTHrP analog” (priority 2006, dated 2023)
# Read-outs that look alike come from different tables or passages of the source.
# Assays:
# [1] = Chemical stability of different formulations (SEQ ID NO.: 2 content); assay type: physicochemical; settings: Table 6 formulations
# Description: (§1) Solutions were prepared at room temperature, by dissolution of the various ingredients in water for injection, with stirring over <30 minutes to ensure complete dissolution, Solutions were filtered through 0.2 micron filter and filled into glass vials, to which a rubber stopper was applied and crimped in place to ensure complete closure.
# Table 6 details the chemical stability of the formulations described in Example 4.
# [2] = test system: urine PD markers (calcium, phosphorus, c-AMP, creatinine); assay: Clinical study: pharmacodynamic markers in urine; assay type: in vivo, human
# Description: Urine PD Samples (Calcium Phosphorus Cyclic AMP [c-AMP], and Creatinine) were Obtained at the Following Time Points:
# Day −1/Day 1: −24 to −18 hours, −18 to −12 hours, and −12 hours to 0 hours.
# Days 1 and 7: 0 to 6 hours, 6 to 12 hours, and 12 to 24 hours.
# The following parameters in urine were presented for each of the PD markers using SAS® Version 8.2: Volume (Vol.), concentration (Conc.), amount (Ae), cumulative amount (Cum. Ae), and excretion rates.
# (§2) The data for each PD marker in serum (total and ionized calcium, phosphorus, PTH(1-84), 1,25-dihydroxyvitamin D, P1NP, and CTX) and in urine (calcium, phosphorus, c-AMP, and creatinine) following SEQ ID NO.: 2 and placebo doses were listed for each subject and summarized by SEQ ID NO.: 2 dose using descriptive statistics (mean, SD, CV %, SEM, N, min, max, and median).
# [3] = human, in vivo
# Description: (§3) A randomized, double-blind, placebo-controlled, multiple-dose design study of Glu^22,25, Leu^23,28,31, Aib^29, Lys^263]hPTHrP(1-34)NH2 (SEQ ID NO.: 2) was conducted at 2 sites. A total of 39 eligible subjects were sequentially enrolled into 1 of 4 study groups consisting of 10 subjects each, with the exception of Group 2, which had 9 subjects. Within each study group, 8 subjects were randomly assigned to receive SEQ ID NO.: 2 and 2 subjects were randomly assigned to receive placebo (In Group 2 only, 1 subject received placebo). All subjects in the study were judged by the investigator to be healthy, normal volunteers. The test products were Glu^22,25, Leu^23,28,31, Aib^29, Lys^26,30]hPTHrP(1-34)NH2 (SEQ ID NO.: 2) (0.1 mg/vial) and Placebo (0.9% sodium chloride injection, USP). All subjects received a single subcutaneous (SC) dose of Glu^22,25, Leu^23,28,31, Aib^29, Lys^26,30]hPTHrP(1-34)NH2 (SEQ ID NO.: 2) or placebo for 7 days.
# (§4) Criteria for Evaluation: Pharmacokinetics: PK sampling for plasma SEQ ID NO.: 2 on Days 1 and 7 was performed at the following time points: Predose (0 hour), 0.25, 0.5, 1, 1.5, 2, 3, 4, 6, 8, 12, and 24 hours postdose. Additionally, predose samples were taken for trough drug analysis on Days 3 to 6. The following PK parameters were computed for Days 1 and 7: AUC(0-t), AUC(0-∞) (Day 1 only), AUC(0-τ), AUCR (Day 1 only), Cmax, Tmax, Tlast, CL/F, Kel, t1/2, and AI (Day 7 only). These parameters were calculated from the overall (24 hours) plasma concentration-versus-time profiles by noncompartmental methods using WinNonlin® Pro Version 5.01 and SAS® Version 8.2. Moreover, the ln-transformed PK parameters Cmax, AUC(0-t), AUC(0-τ), and AUC(0-∞) are presented.
# (§5) Plasma concentration and PK parameters for SEQ ID NO.: 2 were listed by subject and summarized by treatment and day using descriptive statistics (mean, standard deviation [SD], coefficient of variation [CV %], standard error of the mean [SEM], sample size [N], minimum [min], maximum [max], and median). Additionally, geometric means and ln-transformed values were provided for Cmax and AUCs. Dose proportionality was evaluated for Days 1 and 7 SEQ ID NO.: 2 data using the following power model: Ln(Y)=β0+β Ln Dose+ε where Y represents the PK parameters AUC(0-28), AUC(0-τ), AUC(0-t), and Cmax. Dose proportionality requires that β=1 for dose-dependent parameters.
# (§6) The model was used to calculate the 95% confidence intervals (CI) for the slope of the ln-transformed PK parameters AUCs and Cmax. Dose proportionally was concluded if the 95% CI for the PK parameters included the value of 1.
# (§7) For those cases in which dose proportionality could not be concluded within all doses investigated, dose proportionality analysis was performed for the first 3 (by excluding the highest dose) and the last 3 doses (by excluding the lowest dose).
# [4] = test system: serum PD markers (total and ionized calcium, phosphorus, PTH(1-84), 1,25-dihydroxyvitamin D, P1NP, CTX); assay type: in vivo, human
# Text: Predose Days: Days −30 and −2
# PTH(1-84) and 1,25-dihydroxyvitamin D (vitamin D):
# Procollagen Type 1 N-Propeptide (P1NP) and C-Telopeptide
# Predose (Day −2), Days 3, 8, and 14.
# as §2
# clinical = settings: human, in vivo; for AUC: AUC0-tau
# Description: as §3, §4, §5, §6, §7
# Staphylococcus aureus = assay: Preservative effectiveness test, plate-count method; assay type: cell-based; settings: after 3 and 4.5 months storage
# [5] = test system: Bacteria and Yeasts/moulds; assay: Preservative effectiveness test (European Pharmacopoeia 5.1.3), overall result; assay type: cell-based; settings: for preservative efficacy: after 3 and 4.5 months storage; for Preservative effectiveness test Results: after manufacturing
# Description: as §1
# The solutions were then stored for up to 3 months at 25° C., and up to 4.5 months at 5° C. and the preservative effectiveness test repeated. as described in Example 5.
compound,measurement,setting,value
"CC[C@H](C)[C@H](NC(=O)[C@H](CO)NC(=O)[C@H](CCCCN)NC(=O)CNC(=O)[C@H](CCCCN)NC(=O)[C@H](CC(=O)O)NC(=O)[C@H](Cc1cnc[nH]1)NC(=O)[C@H](CC(C)C)NC(=O)[C@H](CC(C)C)NC(=O)[C@H](CCC(N)=O)NC(=O)[C@H](Cc1cnc[nH]1)NC(=O)[C@H](CCC(=O)O)NC(=O)[C@H](CO)NC(=O)[C@@H](NC(=O)[C@H](C)N)C(C)C)C(=O)N[C@@H](CCC(N)=O)C(=O)N[C@@H](CC(=O)O)C(=O)N[C@@H](CC(C)C)C(=O)N[C@@H](CCCNC(=N)N)C(=O)N[C@@H](CCCNC(=N)N)C(=O)N[C@@H](CCCNC(=N)N)C(=O)N[C@@H](CCC(=O)O)C(=O)N[C@@H](CC(C)C)C(=O)N[C@@H](CC(C)C)C(=O)N[C@@H](CCC(=O)O)C(=O)N[C@@H](CCCCN)C(=O)N[C@@H](CC(C)C)C(=O)N[C@@H](CC(C)C)C(=O)NC(C)(C)C(=O)N[C@@H](CCCCN)C(=O)N[C@@H](CC(C)C)C(=O)N[C@@H](Cc1cnc[nH]1)C(=O)N[C@H](C(=O)N[C@@H](C)C(N)=O)[C@@H](C)O [SEQ ID NO.: 2, [Glu^22,25, Leu^23,28,31, Aib^29, Lys^26,30]hPTHrP(1-34)NH2]","solution stability, influence of the preservative",[1],not significantly influenced by the preservative selected
same,mean urinary excretion rates of calcium,[2]; Day 1,approximately at predose levels
same,Mean urinary excretion rates of c-AMP,[2]; Days 1 and 7,increased
same,Mean urinary excretion rates of creatinine,[2]; Days 1 and 7,fluctuated around the predose levels
same,Mean urinary excretion rates of phosphorus,[2]; Days 1 and 7,fluctuated around the predose levels
same,Apparent clearance,[3]; 80 ug,82.74 to 103.9 L/h
same,"Dose proportionality Slope, AUC (0-inf)",[3]; 80 ug,0.9957
same,"Dose proportionality Slope, AUC (0-t)",[3]; 80 ug,0.9071
same,"Dose proportionality Slope, AUC (0-tau)",[3]; 80 ug,1.141
same,"increases in PK parameters Cmax, AUC(0-f), AUC(0-τ), AUC(0-∞) with dose",[3]; 80 ug,dose-proportional
same,AUC0-t,"[3]; sc, 5 ug",0.080704 ± 0.030441 ng·h/mL
same,AUCR,"[3]; sc, 5 ug",0.521 ± 0.111
same,CL/F,"[3]; sc, 5 ug",28.56 L/h
same,Cmax,"[3]; sc, 5 ug",0.0408 ± 0.00763 ng/mL
same,Tmax,"[3]; sc, 5 ug","1.05 (0.514, 1.53) hr"
same,ln (AUC0-inf),"[3]; sc, 5 ug",5.200 ± 0.3016
same,ln (AUC0-tau),"[3]; sc, 5 ug",5.198 ± 0.3007
same,AUC0-t,"[3]; sc, 20 ug",0.17158 ± 0.082031 ng·h/mL
same,AUC0-tau,"[3]; sc, 20 ug",0.2282 ± 0.095154 ng·h/mL
same,AUCR,"[3]; sc, 20 ug",0.828 ± 0.0449
same,CL/F,"[3]; sc, 20 ug",103.9 ± 53.01 L/h
same,Cmax,"[3]; sc, 20 ug",0.109 ± 0.0192 ng/mL
same,Tmax,"[3]; sc, 20 ug","0.512 (0.250, 3.05) hr"
same,ln (AUC0-inf),"[3]; sc, 20 ug",5.456 ± 0.4957
same,t1/2,"[3]; sc, 20 ug",1.05 ± 0.244 h
same,AUC0-t,"[3]; sc, 40 ug",0.40798 ± 0.2197 ng·h/mL
same,AUC0-tau,"[3]; sc, 40 ug",0.48188 ± 0.22619 ng·h/mL
same,AUCR,"[3]; sc, 40 ug",0.838 ± 0.0703
same,CL/F,"[3]; sc, 40 ug",102.0 ± 53.34 L/h
same,Cmax,"[3]; sc, 40 ug",0.207 ± 0.0777 ng/mL
same,Tmax,"[3]; sc, 40 ug","0.492 (0.349, 1.00) hr"
same,ln (AUC0-inf),"[3]; sc, 40 ug",6.280 ± 0.5203
same,t1/2,"[3]; sc, 40 ug",1.43 ± 0.397 h
same,AUC0-t,"[3]; sc, 80 ug",1.003 ± 0.38345 ng·h/mL
same,AUC0-tau,"[3]; sc, 80 ug",1.0803 ± 0.40857 ng·h/mL
same,AUCR,"[3]; sc, 80 ug",0.892 ± 0.0369
same,CL/F,"[3]; sc, 80 ug",82.74 ± 26.95 L/h
same,Cmax,"[3]; sc, 80 ug",0.436 ± 0.0688 ng/mL
same,Tmax,"[3]; sc, 80 ug","0.507 (0.500, 1.00) hr"
same,ln (AUC0-inf),"[3]; sc, 80 ug",6.855 ± 0.5063
same,t1/2,"[3]; sc, 80 ug",1.69 ± 0.425 h
same,"P1NP concentrations in serum, maximum increase above baseline","[4]; 80 μg dose, Days 3, 8, and 14",up to 18±12 ng/mL
same,"1,25-dihydroxyvitamin D concentrations in serum","[4]; 40 and 80 μg doses, after 2 hours postdose on Day 1 and most of the time on Day 7",steadily rose above the predose levels
same,serum phosphorus concentrations versus placebo,[4]; Days 1 and 7,below the placebo concentration levels
same,Serum PTH (1-84) concentrations,"[4]; Days 1 and 7, during most of the sampling times",remained below the predose levels and placebo dose
same,Total calcium concentrations in serum versus reference range,"[4]; human, in vivo",remained within the reference range
same,half-life,clinical; mean t1/2,1.05 to 2.59 h
same,AUC(0-inf),"clinical; sc, 5 ug",0.187 ± 0.0545 ng·h/mL
same,AUC0-t,"clinical; sc, 5 ug",0.0784 ± 0.0455 ng·h/mL
same,AUC,"clinical; sc, 5 ug",0.187 ± 0.0544 ng·h/mL
same,CL/F,"clinical; sc, 5 ug",476 mL/min
same,Cmax,"clinical; sc, 5 ug",0.0431 ± 0.0107 ng/mL
same,Tmax,"clinical; sc, 5 ug",0.566 h
same,half-life,"clinical; sc, 5 ug, t1/2",2.59 ± 0.69 h
same,AUC(0-inf),"clinical; sc, 20 ug",0.257 ± 0.119 ng·h/mL
same,AUC0-t,"clinical; sc, 20 ug",0.161 ± 0.111 ng·h/mL
same,AUC,"clinical; sc, 20 ug",0.257 ± 0.119 ng·h/mL
same,CL/F,"clinical; sc, 20 ug",1570 mL/min
same,Cmax,"clinical; sc, 20 ug",0.115 ± 0.0539 ng/mL
same,Tmax,"clinical; sc, 20 ug",0.296 h
same,half-life,"clinical; sc, 20 ug, t1/2",1.05 ± 0.314 h
same,AUC(0-inf),"clinical; sc, 40 ug",0.593 ± 0.281 ng·h/mL
same,AUC0-t,"clinical; sc, 40 ug",0.42 ± 0.275 ng·h/mL
same,AUC,"clinical; sc, 40 ug",0.593 ± 0.281 ng·h/mL
same,CL/F,"clinical; sc, 40 ug",1400 mL/min
same,Cmax,"clinical; sc, 40 ug",0.223 ± 0.099 ng/mL
same,Tmax,"clinical; sc, 40 ug",0.494 h
same,half-life,"clinical; sc, 40 ug, t1/2",1.65 ± 0.254 h
same,AUC(0-inf),"clinical; sc, 80 ug",1.06 ± 0.514 ng·h/mL
same,AUC0-t,"clinical; sc, 80 ug",0.95 ± 0.494 ng·h/mL
same,AUC,"clinical; sc, 80 ug",1.05 ± 0.511 ng·h/mL
same,CL/F,"clinical; sc, 80 ug",1580 mL/min
same,Cmax,"clinical; sc, 80 ug",0.31 ± 0.0543 ng/mL
same,Tmax,"clinical; sc, 80 ug",0.752 h
same,half-life,"clinical; sc, 80 ug, t1/2",2.3 ± 0.715 h
OCc1ccccc1 [Benzyl Alcohol],rate of kill against S Aureus,Staphylococcus aureus,insufficient rate of kill
same,preservative efficacy,[5],not compliant
same,Preservative effectiveness test Results,[5],compliant
Oc1ccccc1 [Phenol],preservative efficacy,[5],maintained
same,Preservative effectiveness test Results,[5],compliant
